According to ChEMBL document CHEMBL1201862, “PubChem BioAssay data set” (2004):
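Dose response: 5 concentrations. Exposure: 48 h. Format: 96-well plates. Endpoint: linear interpolation; highest concentration if not reached. The concentration for 50% growth inhibition is given as GI50.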 The source made the active and inactive calls. Cut-off read from the data, not from the text of the source: active = GI50 up to about 1.1 µM and inactive = higher.

Legend:
Assay in all cases: NCI-60 cell line screen, 48 h
NCI-H226 = system: NCI-H226
OVCAR-4 = system: OVCAR-4
OVCAR-8 = system: OVCAR-8
786-0 = system: 786-0
SW-620 = system: SW-620
HOP-62 = system: HOP-62
MDA-MB-435 = system: MDA-MB-435
HL-60 = system: HL-60
Hs-578T = system: Hs-578T
CCRF-CEM = system: CCRF-CEM
SK-MEL-5 = system: SK-MEL-5
KM12 = system: KM12
SF-539 = system: SF-539
MDA-MB-231 = system: MDA-MB-231
MDA-N = system: MDA-N
OVCAR-5 = system: OVCAR-5
PC-3 = system: PC-3
M14 = system: M14
SK-MEL-2 = system: SK-MEL-2
HCC 2998 = system: HCC 2998

Structure (SMILES) | GI50 (NCI-H226) | GI50 (OVCAR-4) | GI50 (OVCAR-8) | GI50 (786-0) | GI50 (SW-620) | GI50 (HOP-62) | GI50 (MDA-MB-435) | GI50 (HL-60) | GI50 (Hs-578T) | GI50 (CCRF-CEM) | GI50 (SK-MEL-5) | GI50 (KM12) | GI50 (SF-539) | GI50 (MDA-MB-231) | GI50 (MDA-N) | GI50 (OVCAR-5) | GI50 (PC-3) | GI50 (M14) | GI50 (SK-MEL-2) | GI50 (HCC 2998)
Cc1ccc(S(=O)(=O)n2ccn3c(=O)cc(C)nc23)cc1 | > 10 µM (inactive) | > 10 µM (inactive) | > 10 µM (inactive) | > 10 µM (inactive) | > 10 µM (inactive) | > 10 µM (inactive) | > 10 µM (inactive) | > 10 µM (inactive) | 8.59 µM (inactive) | > 10 µM (inactive) | > 10 µM (inactive) | > 10 µM (inactive) | > 10 µM (inactive) | > 10 µM (inactive) | > 10 µM (inactive) | > 10 µM (inactive) | > 10 µM (inactive) | > 10 µM (inactive) | > 10 µM (inactive) | –
O=C(CN1CCNCCN(CC(=O)N2CCCCC2)CCNCC1)N1CCCCC1 | > 100 µM (inactive) | > 100 µM (inactive) | > 100 µM (inactive) | 43.6 µM (inactive) | 58.2 µM (inactive) | > 100 µM (inactive) | > 100 µM (inactive) | 32.2 µM (inactive) | > 100 µM (inactive) | 52.4 µM (inactive) | 71.8 µM (inactive) | 17.6 µM (inactive) | > 100 µM (inactive) | > 100 µM (inactive) | > 100 µM (inactive) | > 100 µM (inactive) | > 100 µM (inactive) | > 100 µM (inactive) | > 100 µM (inactive) | –
N#C[BH2-][n+]1cn(C2CC(O)C(COP(=O)(O)OC3CC(n4ccc(N)nc4=O)OC3CO)O2)c2nc(N)[nH]c(=O)c21 (configuration not stated) | > 100 µM (inactive) | > 100 µM (inactive) | > 100 µM (inactive) | > 100 µM (inactive) | – | > 100 µM (inactive) | – | > 100 µM (inactive) | – | > 100 µM (inactive) | > 100 µM (inactive) | > 100 µM (inactive) | > 100 µM (inactive) | > 100 µM (inactive) | > 100 µM (inactive) | > 100 µM (inactive) | > 100 µM (inactive) | > 100 µM (inactive) | > 100 µM (inactive) | > 100 µM (inactive)
C=CCN1C(=O)C=C(c2ccccc2)n2ncc3cccc1c32 | > 100 µM (inactive) | – | > 100 µM (inactive) | > 100 µM (inactive) | > 100 µM (inactive) | 80.4 µM (inactive) | 1.46 µM (inactive) | > 100 µM (inactive) | > 100 µM (inactive) | 67.9 µM (inactive) | 81.5 µM (inactive) | 47.8 µM (inactive) | > 100 µM (inactive) | > 100 µM (inactive) | > 100 µM (inactive) | > 100 µM (inactive) | > 100 µM (inactive) | > 100 µM (inactive) | > 100 µM (inactive) | –
Nc1ccccc1/C=C\c1ccccc1 | > 100 µM (inactive) | – | > 100 µM (inactive) | > 100 µM (inactive) | > 100 µM (inactive) | > 100 µM (inactive) | > 100 µM (inactive) | > 100 µM (inactive) | > 100 µM (inactive) | > 100 µM (inactive) | > 100 µM (inactive) | > 100 µM (inactive) | > 100 µM (inactive) | – | > 100 µM (inactive) | > 100 µM (inactive) | > 100 µM (inactive) | > 100 µM (inactive) | – | –
O=C(O)C1CCCN1C(=O)c1cc(Cl)ccn1 (configuration not stated) | > 100 µM (inactive) | > 100 µM (inactive) | > 100 µM (inactive) | > 100 µM (inactive) | > 100 µM (inactive) | > 100 µM (inactive) | > 100 µM (inactive) | > 100 µM (inactive) | > 100 µM (inactive) | > 100 µM (inactive) | > 100 µM (inactive) | > 100 µM (inactive) | > 100 µM (inactive) | – | > 100 µM (inactive) | > 100 µM (inactive) | > 100 µM (inactive) | > 100 µM (inactive) | > 100 µM (inactive) | > 100 µM (inactive)
Cc1ccc(S(=O)(=O)n2cc(/C=C/C#N)c(-c3cn(S(=O)(=O)c4ccc(C)cc4)cc3-c3cn(S(=O)(=O)c4ccc(C)cc4)cc3/C=C/C#N)c2)cc1 | > 100 µM (inactive) | > 100 µM (inactive) | > 100 µM (inactive) | > 100 µM (inactive) | – | > 100 µM (inactive) | > 100 µM (inactive) | – | 90.2 µM (inactive) | – | > 100 µM (inactive) | 91.6 µM (inactive) | – | 18.5 µM (inactive) | > 100 µM (inactive) | > 100 µM (inactive) | 94.2 µM (inactive) | 47 µM (inactive) | > 100 µM (inactive) | –
Clc1ccc(OCc2nn3c(CCc4nnc5sc(COc6ccc(Cl)cc6)nn45)nnc3s2)cc1 | 30.3 µM (inactive) | 14.7 µM (inactive) | 14.5 µM (inactive) | 26.4 µM (inactive) | 25.2 µM (inactive) | 23.7 µM (inactive) | 24.9 µM (inactive) | 18.8 µM (inactive) | 3.94 µM (inactive) | 29.1 µM (inactive) | 11.1 µM (inactive) | 18 µM (inactive) | 27.9 µM (inactive) | 19.8 µM (inactive) | 30.3 µM (inactive) | 53.7 µM (inactive) | 15.6 µM (inactive) | 33.7 µM (inactive) | 25.7 µM (inactive) | –
O=S(=O)(O)c1ccc2c(/N=N/c3ccc(Cl)cc3)c(O)ccc2c1 | – | > 100 µM (inactive) | > 100 µM (inactive) | > 100 µM (inactive) | > 100 µM (inactive) | > 100 µM (inactive) | > 100 µM (inactive) | – | > 100 µM (inactive) | > 100 µM (inactive) | > 100 µM (inactive) | > 100 µM (inactive) | – | > 100 µM (inactive) | > 100 µM (inactive) | > 100 µM (inactive) | > 100 µM (inactive) | > 100 µM (inactive) | > 100 µM (inactive) | –
CC(C)(C)OC(=O)NCCC1CN(C(=O)c2ccccc2)c2ccccc21 (configuration not stated) | – | 36.9 µM (inactive) | 25.6 µM (inactive) | 35.3 µM (inactive) | 34.2 µM (inactive) | 25.8 µM (inactive) | 27.6 µM (inactive) | – | 43.5 µM (inactive) | – | 16.4 µM (inactive) | 31.5 µM (inactive) | – | 40.1 µM (inactive) | 21.6 µM (inactive) | 32.7 µM (inactive) | 31.8 µM (inactive) | 16.7 µM (inactive) | 27.7 µM (inactive) | 73.1 µM (inactive)
O=C1Nc2ccccc2/C1=N/Nc1ncccc1[N+](=O)[O-] | 13.6 µM (inactive) | 19.2 µM (inactive) | 17.6 µM (inactive) | 4.84 µM (inactive) | 8.13 µM (inactive) | 12.9 µM (inactive) | 16.8 µM (inactive) | – | 31.6 µM (inactive) | – | – | 3.42 µM (inactive) | 2.37 µM (inactive) | 86.9 µM (inactive) | 27.1 µM (inactive) | 12.6 µM (inactive) | 12.4 µM (inactive) | 16.3 µM (inactive) | 20.9 µM (inactive) | –
CC1=CC(=O)/C(=C/NC(=S)c2ccccc2)C(=O)O1 | > 100 µM (inactive) | > 100 µM (inactive) | > 100 µM (inactive) | > 100 µM (inactive) | > 100 µM (inactive) | > 100 µM (inactive) | > 100 µM (inactive) | – | – | – | > 100 µM (inactive) | > 100 µM (inactive) | > 100 µM (inactive) | > 100 µM (inactive) | > 100 µM (inactive) | > 100 µM (inactive) | > 100 µM (inactive) | > 100 µM (inactive) | > 100 µM (inactive) | > 100 µM (inactive)
CC(C)(C)OC(=O)N1C(=O)OC[C@@H]2C=C[C@@H]21 | – | > 100 µM (inactive) | > 100 µM (inactive) | > 100 µM (inactive) | > 100 µM (inactive) | > 100 µM (inactive) | > 100 µM (inactive) | > 100 µM (inactive) | > 100 µM (inactive) | > 100 µM (inactive) | > 100 µM (inactive) | > 100 µM (inactive) | > 100 µM (inactive) | > 100 µM (inactive) | > 100 µM (inactive) | > 100 µM (inactive) | > 100 µM (inactive) | > 100 µM (inactive) | > 100 µM (inactive) | –
Nc1ccn(C2OC(COP(=O)(O)OCC3OC(n4cc(F)c(=O)[nH]c4=O)CC3O)C(O)C2O)c(=O)n1 (configuration not stated) | > 22.9 µM (inactive) | > 100 µM (inactive) | 1.37 µM (inactive) | 1.33 µM (inactive) | > 100 µM (inactive) | – | 1.58 µM (inactive) | 0.237 µM (active) | > 100 µM (inactive) | 0.0161 µM (active) | 0.605 µM (active) | > 100 µM (inactive) | < 0.0439 µM (active) | – | 26.4 µM (inactive) | > 100 µM (inactive) | > 100 µM (inactive) | 0.183 µM (active) | > 100 µM (inactive) | 87.9 µM (inactive)
N#CC1=C(Nc2ccccc2)SC=C(c2ccccc2)N=C1NCc1ccccc1 | – | > 100 µM (inactive) | > 100 µM (inactive) | > 100 µM (inactive) | > 100 µM (inactive) | > 100 µM (inactive) | > 100 µM (inactive) | – | – | – | 54.5 µM (inactive) | > 100 µM (inactive) | > 100 µM (inactive) | > 100 µM (inactive) | > 100 µM (inactive) | > 100 µM (inactive) | > 100 µM (inactive) | > 100 µM (inactive) | > 100 µM (inactive) | –
CC(=O)Nc1ccc2c(c1)nc1c3ccccc3ccn21 | > 100 µM (inactive) | > 100 µM (inactive) | > 100 µM (inactive) | > 100 µM (inactive) | > 100 µM (inactive) | 50.6 µM (inactive) | > 100 µM (inactive) | > 100 µM (inactive) | > 100 µM (inactive) | 27.8 µM (inactive) | > 100 µM (inactive) | 81.1 µM (inactive) | > 100 µM (inactive) | > 100 µM (inactive) | > 100 µM (inactive) | > 100 µM (inactive) | > 100 µM (inactive) | > 100 µM (inactive) | > 100 µM (inactive) | –
